The values below come from ChEMBL document CHEMBL4823311, “Optimization of Naphthyridones into Selective TATA-Binding Protein Associated Factor 1 (TAF1) Bromodomain Inhibitors” (ACS Med Chem Lett, 2021).

Usually chromatographic logD stands for a lipophilicity value derived from retention on a column. A high value points to higher lipophilicity. As usually defined, the inhibition is the drop in the measured response relative to a control, in per cent. A lower inhibition goes with little suppression.

Data set [1] can be described thus: Lipophilicity, logD of the compound at pH 7.4 by chromatographic method. In kind it is physicochemical. Particulars: buffer.
In data set [2] the target is T1, ATPase family AAA domain-containing protein 2 (Homo sapiens) (UniProt Q6PL18).
T1 sequence (whole entry): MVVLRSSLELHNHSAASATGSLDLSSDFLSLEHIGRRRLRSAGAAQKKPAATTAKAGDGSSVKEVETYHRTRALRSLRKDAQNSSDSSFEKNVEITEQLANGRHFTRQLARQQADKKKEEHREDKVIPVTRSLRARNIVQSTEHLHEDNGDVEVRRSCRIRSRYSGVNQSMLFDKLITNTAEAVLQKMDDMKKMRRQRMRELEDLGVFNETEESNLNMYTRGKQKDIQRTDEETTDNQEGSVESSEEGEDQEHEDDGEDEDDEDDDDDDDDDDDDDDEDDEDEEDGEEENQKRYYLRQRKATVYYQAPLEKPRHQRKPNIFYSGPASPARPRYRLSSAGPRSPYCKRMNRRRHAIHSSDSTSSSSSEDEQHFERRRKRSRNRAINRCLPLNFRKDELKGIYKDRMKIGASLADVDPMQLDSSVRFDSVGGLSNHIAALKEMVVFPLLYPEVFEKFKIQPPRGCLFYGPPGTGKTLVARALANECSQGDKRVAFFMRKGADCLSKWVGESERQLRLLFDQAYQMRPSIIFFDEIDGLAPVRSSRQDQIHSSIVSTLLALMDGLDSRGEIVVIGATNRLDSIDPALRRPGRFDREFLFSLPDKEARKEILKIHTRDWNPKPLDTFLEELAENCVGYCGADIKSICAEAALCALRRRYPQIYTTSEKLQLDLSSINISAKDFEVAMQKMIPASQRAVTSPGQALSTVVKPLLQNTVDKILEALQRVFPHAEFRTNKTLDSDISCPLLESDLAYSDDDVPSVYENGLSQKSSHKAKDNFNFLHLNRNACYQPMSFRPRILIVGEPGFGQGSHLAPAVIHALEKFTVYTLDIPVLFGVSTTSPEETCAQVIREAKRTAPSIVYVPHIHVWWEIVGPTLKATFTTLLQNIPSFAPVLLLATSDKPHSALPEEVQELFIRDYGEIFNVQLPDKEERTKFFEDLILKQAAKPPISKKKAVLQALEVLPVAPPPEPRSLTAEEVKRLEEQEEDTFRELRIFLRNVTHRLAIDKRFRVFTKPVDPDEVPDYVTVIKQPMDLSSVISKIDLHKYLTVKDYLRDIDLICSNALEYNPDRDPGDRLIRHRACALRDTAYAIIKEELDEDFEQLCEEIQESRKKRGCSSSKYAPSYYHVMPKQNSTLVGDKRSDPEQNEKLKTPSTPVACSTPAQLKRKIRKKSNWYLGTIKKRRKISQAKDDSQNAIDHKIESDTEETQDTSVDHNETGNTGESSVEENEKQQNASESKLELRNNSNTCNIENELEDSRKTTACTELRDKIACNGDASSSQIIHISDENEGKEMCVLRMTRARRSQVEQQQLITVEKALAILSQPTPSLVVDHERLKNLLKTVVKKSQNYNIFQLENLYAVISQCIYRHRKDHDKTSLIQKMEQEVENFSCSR
Put plainly: Inhibition of human partial length ATAD2 (Q981 to R1108 residues) expressed in bacterial expression system at 10 uM measured by BROMOscan assay.

For `Cc1cc2c(C3=CCOCC3)cnc(NC3CCN(C(=O)C(F)(F)CN)CC3)c2[nH]c1=O`, in data set [1], the chromatographic logD was 2.7. This compound registered an inhibition in data set [2] of 24%.
